In the NIST ThermoML archive (doi:10.1021/je5009334):
Values joined by “and” are separate entries in the source; they are usually repeats but may differ in a detail not shown here. Equal values may be shown once.

How the values were obtained:
[1] = 101 kPa, Liquid; for speed of sound: Sing-around technique in a fixed-path interferometer; for mass density: Vibrating tube method
[2] = xn = mol fraction of the nth substance listed; settings: 101 kPa, Liquid; for speed of sound: Sing-around technique in a fixed-path interferometer; for mass density: Vibrating tube method

CCC(O)CO (stereo not drawn) [1,2-butanediol]
[1]
Settings	mass density	speed of sound
298.15 K	998.509 kg/m3 and 998.492 kg/m3	1452.6 m/s
303.15 K	994.744 kg/m3 and 994.719 kg/m3 and 994.759 kg/m3	1438.2 m/s and 1437.7 m/s
308.15 K	990.956 kg/m3 and 990.971 kg/m3	1423.6 m/s
313.15 K	987.136 kg/m3 and 987.113 kg/m3 and 987.152 kg/m3	1409.2 m/s and 1408.5 m/s and 1409.1 m/s
318.15 K	983.284 kg/m3 and 983.257 kg/m3 and 983.297 kg/m3	1394.6 m/s and 1394 m/s and 1394.5 m/s
323.15 K	979.394 kg/m3 and 979.371 kg/m3 and 979.406 kg/m3	1380 m/s and 1379.6 m/s and 1379.9 m/s

CCC(O)CO (stereo not drawn) [1,2-butanediol] + CC(O)CCO
[2], x1 = 1
Settings	mass density [kg/m3]	speed of sound [m/s]
298.15 K	998.509	1452.6
303.15 K	994.759	1438.2
308.15 K	990.971	1423.6
313.15 K	987.152	1409.1
318.15 K	983.297	1394.5
323.15 K	979.406	1379.9

CCC(O)CO (stereo not drawn) [1,2-butanediol] + OCCc1ccccc1
[2], x2 = 0
Settings	mass density [kg/m3]	speed of sound [m/s]
298.15 K	998.509	1452.6
303.15 K	994.719	1437.7
308.15 K	990.971	1423.6
313.15 K	987.113	1408.5
318.15 K	983.257	1394
323.15 K	979.371	1379.6

CC(O)CCO (stereo not drawn) [1,3-butanediol]
[1]
Settings	mass density [kg/m3]	speed of sound [m/s]
298.15 K	1001.82	1527.8
303.15 K	998.418	1514.1
308.15 K	994.987	1500.2
313.15 K	991.528	1486.3
318.15 K	988.035	1472.3
323.15 K	984.506	1458.3

OCCc1ccccc1 [2-phenylethanol]
[1]
Settings	mass density [kg/m3]	speed of sound [m/s]
298.15 K	1016.14	1526.1
303.15 K	1012.39	1510.5
308.15 K	1008.61	1494.7
313.15 K	1004.75	1479.2
318.15 K	1000.93	1463.2
323.15 K	997.075	1447.7

OCc1ccccc1 [benzenemethanol]
[1]
Settings	mass density [kg/m3]	speed of sound [m/s]
298.15 K	1041.22	1525.2
303.15 K	1037.35	1509.3
308.15 K	1033.47	1493.6
313.15 K	1029.58	1478
318.15 K	1025.67	1462.6
323.15 K	1021.75	1447.3

OCc1ccccc1 [benzenemethanol] + CCC(O)CO
[2], x1 = 1
Settings	mass density [kg/m3]	speed of sound [m/s]
298.15 K	1041.22	1525.2
303.15 K	1037.35	1509.3
308.15 K	1033.47	1493.6
313.15 K	1029.58	1478
318.15 K	1025.67	1462.6
323.15 K	1021.75	1447.3

CCC(C)O (stereo not drawn) [butan-2-ol]
[1]
Settings	mass density [kg/m3]	speed of sound [m/s]
298.15 K	803.103	1212.7
303.15 K	798.891	1194.5
308.15 K	794.588	1176.2
313.15 K	790.191	1157.9
318.15 K	785.692	1139.5
323.15 K	781.09	1121

CCC(C)O (stereo not drawn) [butan-2-ol] + CCC(O)CO
[2], x2 = 0
Settings	mass density [kg/m3]	speed of sound [m/s]
298.15 K	803.103	1212.7
303.15 K	798.891	1194.5
308.15 K	794.588	1176.2
313.15 K	790.191	1157.9
318.15 K	785.692	1139.5
323.15 K	781.09	1121
